The source of these data is patent publication US20150218142A1, “Derivatives of Betulin” (GlaxoSmithKline LLC, priority 2011, published 2015).

In one data set the test system is HIV NL4-3 wt. The data set can be described thus: microbe, parasite or virus in culture. The class given is cell-based.
For data set [1], the system named is NL4-3 strain with V370A site directed mutant polymorphism. The data set can be described thus: microbe, parasite or virus in culture. The data set is classed as cell-based, HIV-1.
In data set [2] the test system is HIV.
Data set [3] deals with HIV. To be noted: McCallister et al. 2008 poster; cited from earlier work.
Data set [4] relates to HIV. The data set can be described thus: microbe, parasite or virus in culture. As to conditions: Human immunodeficiency virus 1, read-out: LHIV IC50 value with 40% human serum.
[5] abbreviates: Human immunodeficiency virus 1, NL43, HIV MT4 Antiviral Cell Assay of Example 84, read-out: EC50 NL4-3 wt.
Setting [6] is: Human immunodeficiency virus 1, NL43, Consensus Clade B Sp1 Genotype, read-out: MT4 NL. wt* EC50.

As a reminder, the EC50 is the concentration needed to bring the measured effect to its halfway point. The term pIC50 denotes the IC50 on a negative log10 scale, so that one unit is a factor of ten.

Molecules are shown by their SMILES. pEC50, pIC50: −log10 of the molar value. Where two headings read alike, the source gives them in different places.

Regarding `CC(C)C1=C2[C@H]3CC[C@@H]4[C@@]5(C)CC[C@H](OC(=O)CC(C)(C)C(=O)O)C(C)(C)[C@@H]5CC[C@@]4(C)[C@]3(C)CC[C@@]2([C@@H](O)CNCc2cccc(Cl)c2)CC1=O` [compound 38], the pEC50 with HIV NL4-3 wt (setting [5]) was 8.28.

Regarding `CC(C)C1=C2[C@H]3CC[C@@H]4[C@@]5(C)CC[C@H](OC(=O)CC(C)(C)C(=O)O)C(C)(C)[C@@H]5CC[C@@]4(C)[C@]3(C)CC[C@@]2(C(=O)C(=O)NC2(c3ccc(Cl)cc3)CC2)CC1=O` [Compound A], the pEC50 in the data set on HIV NL4-3 wt (setting [6]) was 7.85. Also, in data set [1] (Human immunodeficiency virus 1, NL43, read-out: MT4 NL. V370A EC50 (nM)), the EC50 amounted to 16 nM.

For the compound `CC(=O)O[C@H](CNCc1ccccc1)[C@@]12CC[C@]3(C)[C@H](CC[C@@H]4[C@@]5(C)CC[C@H](OC(=O)CC(C)(C)C(=O)O)C(C)(C)[C@@H]5CC[C@]43C)C1=C(C(C)C)C(=O)C2` [compound 53], the pEC50 with HIV NL4-3 wt (setting [5]) is 8.21.

Regarding `CC(C)C1=C2[C@H]3CC[C@@H]4[C@@]5(C)CC[C@H](OC(=O)CC(C)(C)C(=O)O)C(C)(C)[C@@H]5CC[C@@]4(C)[C@]3(C)CC[C@@]2([C@@H](O)CNC2CCCCC2)CC1=O` [compound 59], in the data set with HIV NL4-3 wt (setting [5]), the pEC50 is 8.28.

Regarding `C=C(C)[C@@H]1CC[C@]2(C(=O)O)CC[C@]3(C)[C@H](CC[C@@H]4[C@@]5(C)CC[C@H](OC(=O)CC(C)(C)C(=O)O)C(C)(C)[C@@H]5CC[C@]43C)[C@@H]12` [Bevirimat], the “fold shift in the IC50 value, LHIV assay, 40% human serum” value with HIV [2] (addition of 40% human serum) was 174.9 fold. Further, in the data set with HIV [2] (human protein shift, human serum (HS)), the “fold shift with human serum” value is listed as 157 fold. Also, in the data set with HIV [3], the Cmin target was greater than 20000 ng/mL. Moreover, in the data set with HIV [4], the pIC50 was 5.41.

`CC(C)C1=C2[C@H]3CC[C@@H]4[C@@]5(C)CC[C@H](OC(=O)CC(C)(C)C(=O)O)C(C)(C)[C@@H]5CC[C@@]4(C)[C@]3(C)CC[C@@]2([C@H](O)CNCc2cccc(Cl)c2)CC1=O` [compound 37]: the pEC50 in the data set with HIV NL4-3 wt (setting [5]) is 7.57.

For `CC(C)C1=C2[C@H]3CC[C@@H]4[C@@]5(C)CC[C@H](OC(=O)CC(C)(C)C(=O)O)C(C)(C)[C@@H]5CC[C@@]4(C)[C@]3(C)CC[C@@]2(C(=O)C(=O)NC2(c3ncc(Cl)cn3)CC2)CC1=O` [CompoundB], the pEC50 with HIV NL4-3 wt (setting [6]) was 8.10.

Turning to `CC(C)C1=C2[C@H]3CC[C@@H]4[C@@]5(C)CC[C@H](OC(=O)CC(C)(C)C(=O)O)C(C)(C)[C@@H]5CC[C@@]4(C)[C@]3(C)CC[C@@]2(C(=O)C(=O)N(CCN(C)C)Cc2ccc(Cl)cc2)CC1=O` [Compound C], the pEC50 is 8.22 in the data set on HIV NL4-3 wt (Human immunodeficiency virus 1, NL43, Table 7, read-out: HIV w/t MT4 EC50); 8.22 in the data set on HIV NL4-3 wt (Human immunodeficiency virus 1, NL43, read-out: MT4 antiviral assay NL4-3 strain / HIV wild type EC50); 7.72 in data set [1] (Human immunodeficiency virus 1, NL43, read-out: MT4 antiviral assay V370A polymorphism EC50); 7.72 in data set [1] (Human immunodeficiency virus 1, NL43, read-out: V370A MT4 EC50); 6.03 in data set [1] (Human immunodeficiency virus 1, NL43, read-out: protein adjusted EC50 for the V370A polymorphic virus).
